Patent US11208412B2 (DAEGU-GYEONGBUK MEDICAL INNOVATION FOUNDATION, priority 2017, dated 2021)

Tests used:
Test in all cases: Kinase selectivity, DiscoverX scanMAX Kinase assay panel (% control)
Type in all cases: binding
[1] = target: T1, kinases of the scanMAX Kinase assay panel (Homo sapiens, UniProt O15111); details: IKK-alpha; 1 uM
T1 construct: purchased DiscoverX Co. (contract measurement) scanMAX Kinase assay panel
T1 sequence (O15111 1-745): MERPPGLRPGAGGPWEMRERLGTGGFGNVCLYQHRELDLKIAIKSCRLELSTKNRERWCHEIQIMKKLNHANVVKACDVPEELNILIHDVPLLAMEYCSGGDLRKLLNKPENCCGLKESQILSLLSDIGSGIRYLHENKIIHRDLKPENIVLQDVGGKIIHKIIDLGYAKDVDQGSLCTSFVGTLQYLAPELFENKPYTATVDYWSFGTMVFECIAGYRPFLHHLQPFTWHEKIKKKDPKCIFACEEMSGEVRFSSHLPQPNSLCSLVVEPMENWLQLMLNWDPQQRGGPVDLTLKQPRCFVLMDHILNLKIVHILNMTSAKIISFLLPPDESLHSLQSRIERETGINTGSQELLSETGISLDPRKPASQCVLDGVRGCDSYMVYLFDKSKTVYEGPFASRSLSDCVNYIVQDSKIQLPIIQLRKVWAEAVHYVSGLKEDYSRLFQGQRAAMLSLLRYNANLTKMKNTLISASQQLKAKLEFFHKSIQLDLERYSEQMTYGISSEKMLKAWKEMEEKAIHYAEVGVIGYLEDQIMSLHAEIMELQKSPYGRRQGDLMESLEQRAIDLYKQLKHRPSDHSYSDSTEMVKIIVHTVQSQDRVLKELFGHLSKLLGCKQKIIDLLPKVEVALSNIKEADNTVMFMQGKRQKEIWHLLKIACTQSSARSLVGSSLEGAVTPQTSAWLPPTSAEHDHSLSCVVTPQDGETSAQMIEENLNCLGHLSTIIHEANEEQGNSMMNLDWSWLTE
Procedure, shortened: (§1)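 Read-out is % control, normalised so a positive-control compound sits at 0% and DMSO at 100%: (test − positive)/(negative − positive)×100. Each kinase received the compound at 1 uM in DMSO. A value below 35% counts as activity.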

[2] = target: T2, kinases of the scanMAX Kinase assay panel (Homo sapiens, UniProt O75460); details: ERN1; 1 uM
T2 construct: purchased DiscoverX Co. (contract measurement) scanMAX Kinase assay panel
Procedure, shortened: as §1

[3] = target: T3, kinases of the scanMAX Kinase assay panel (Homo sapiens, UniProt O75914); details: PAK3; 1 uM
T3 construct: purchased DiscoverX Co. (contract measurement) scanMAX Kinase assay panel
Procedure, shortened: as §1

[4] = target: T4, kinases of the scanMAX Kinase assay panel (Homo sapiens, UniProt P36888, N841I); details: FLT3(N841I); 1 uM
T4 construct: purchased DiscoverX Co. (contract measurement) scanMAX Kinase assay panel
T4 sequence (P36888 27-993 N841I): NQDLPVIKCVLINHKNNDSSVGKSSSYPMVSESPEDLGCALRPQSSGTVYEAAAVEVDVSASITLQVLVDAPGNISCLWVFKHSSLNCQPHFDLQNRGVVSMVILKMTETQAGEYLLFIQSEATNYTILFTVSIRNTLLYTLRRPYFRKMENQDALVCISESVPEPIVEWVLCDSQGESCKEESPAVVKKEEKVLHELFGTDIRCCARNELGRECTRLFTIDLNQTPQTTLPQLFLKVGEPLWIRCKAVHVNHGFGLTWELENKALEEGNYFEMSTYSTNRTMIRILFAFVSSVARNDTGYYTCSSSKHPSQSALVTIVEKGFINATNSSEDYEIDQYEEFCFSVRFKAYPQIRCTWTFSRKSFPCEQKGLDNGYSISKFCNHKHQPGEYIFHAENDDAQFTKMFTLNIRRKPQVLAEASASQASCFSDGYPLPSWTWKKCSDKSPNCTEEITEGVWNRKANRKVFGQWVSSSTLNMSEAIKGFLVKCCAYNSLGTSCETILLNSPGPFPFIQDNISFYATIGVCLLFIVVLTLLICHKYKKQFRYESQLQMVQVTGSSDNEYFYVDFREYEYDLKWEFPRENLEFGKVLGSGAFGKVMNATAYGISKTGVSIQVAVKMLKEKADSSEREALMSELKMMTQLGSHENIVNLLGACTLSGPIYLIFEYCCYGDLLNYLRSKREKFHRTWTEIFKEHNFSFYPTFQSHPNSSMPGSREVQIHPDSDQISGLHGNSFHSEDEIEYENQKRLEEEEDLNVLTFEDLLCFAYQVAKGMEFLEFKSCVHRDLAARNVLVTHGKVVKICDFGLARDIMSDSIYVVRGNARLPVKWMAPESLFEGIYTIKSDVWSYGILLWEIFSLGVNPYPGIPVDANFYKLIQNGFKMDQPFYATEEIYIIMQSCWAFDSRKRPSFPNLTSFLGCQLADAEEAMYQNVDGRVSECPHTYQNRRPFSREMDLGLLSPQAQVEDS
Procedure, shortened: as §1

[5] = target: T5, kinases of the scanMAX Kinase assay panel (Homo sapiens, UniProt P51817); details: PRKX; 1 uM
T5 construct: purchased DiscoverX Co. (contract measurement) scanMAX Kinase assay panel
T5 sequence (P51817 1-358): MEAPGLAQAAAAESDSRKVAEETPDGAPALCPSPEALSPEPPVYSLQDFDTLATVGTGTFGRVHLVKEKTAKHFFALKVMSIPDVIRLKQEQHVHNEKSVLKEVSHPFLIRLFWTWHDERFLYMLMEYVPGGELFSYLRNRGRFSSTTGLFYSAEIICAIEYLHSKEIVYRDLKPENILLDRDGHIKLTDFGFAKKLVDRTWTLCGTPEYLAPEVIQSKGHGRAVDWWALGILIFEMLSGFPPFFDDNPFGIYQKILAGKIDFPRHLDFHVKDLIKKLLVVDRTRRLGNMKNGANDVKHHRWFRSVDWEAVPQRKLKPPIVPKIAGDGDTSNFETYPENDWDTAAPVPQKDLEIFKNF
Procedure, shortened: as §1

[6] = target: T6, kinases of the scanMAX Kinase assay panel (Homo sapiens, UniProt Q00537); details: PCTK2; 1 uM
T6 construct: purchased DiscoverX Co. (contract measurement) scanMAX Kinase assay panel
Procedure, shortened: as §1

[7] = target: T7, kinases of the scanMAX Kinase assay panel (Homo sapiens, UniProt Q04912); details: MST1R; 1 uM
T7 construct: purchased DiscoverX Co. (contract measurement) scanMAX Kinase assay panel
Procedure, shortened: as §1

[8] = target: T8, kinases of the scanMAX Kinase assay panel (Homo sapiens, UniProt Q15569); details: kinase TESK1; 1 uM in DMSO
T8 construct: purchased DiscoverX Co. (contract measurement) scanMAX Kinase assay panel
Procedure, shortened: as §1

[9] = target: T9, kinases of the scanMAX Kinase assay panel (Homo sapiens, UniProt Q9UM73, C1156Y); details: ALK(C1156Y); 1 uM
T9 construct: purchased DiscoverX Co. (contract measurement) scanMAX Kinase assay panel
Procedure, shortened: as §1

T8 sequence (Q15569 whole entry): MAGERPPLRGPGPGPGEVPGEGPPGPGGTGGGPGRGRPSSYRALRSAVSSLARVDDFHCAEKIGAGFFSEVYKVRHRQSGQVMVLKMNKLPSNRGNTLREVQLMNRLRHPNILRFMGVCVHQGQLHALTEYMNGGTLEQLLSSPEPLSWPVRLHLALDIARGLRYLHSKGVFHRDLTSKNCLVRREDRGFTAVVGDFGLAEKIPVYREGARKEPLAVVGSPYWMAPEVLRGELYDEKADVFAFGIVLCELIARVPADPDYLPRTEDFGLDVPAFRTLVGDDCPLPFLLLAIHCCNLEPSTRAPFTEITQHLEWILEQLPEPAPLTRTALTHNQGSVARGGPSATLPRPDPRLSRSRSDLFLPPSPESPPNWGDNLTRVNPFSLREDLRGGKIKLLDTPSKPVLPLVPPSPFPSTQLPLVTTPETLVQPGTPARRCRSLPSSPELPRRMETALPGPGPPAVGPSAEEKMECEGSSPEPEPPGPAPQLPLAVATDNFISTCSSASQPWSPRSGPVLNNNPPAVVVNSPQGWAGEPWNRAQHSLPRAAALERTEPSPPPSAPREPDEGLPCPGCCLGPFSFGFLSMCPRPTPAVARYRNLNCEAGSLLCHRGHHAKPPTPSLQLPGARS
T6 sequence (Q00537 whole entry): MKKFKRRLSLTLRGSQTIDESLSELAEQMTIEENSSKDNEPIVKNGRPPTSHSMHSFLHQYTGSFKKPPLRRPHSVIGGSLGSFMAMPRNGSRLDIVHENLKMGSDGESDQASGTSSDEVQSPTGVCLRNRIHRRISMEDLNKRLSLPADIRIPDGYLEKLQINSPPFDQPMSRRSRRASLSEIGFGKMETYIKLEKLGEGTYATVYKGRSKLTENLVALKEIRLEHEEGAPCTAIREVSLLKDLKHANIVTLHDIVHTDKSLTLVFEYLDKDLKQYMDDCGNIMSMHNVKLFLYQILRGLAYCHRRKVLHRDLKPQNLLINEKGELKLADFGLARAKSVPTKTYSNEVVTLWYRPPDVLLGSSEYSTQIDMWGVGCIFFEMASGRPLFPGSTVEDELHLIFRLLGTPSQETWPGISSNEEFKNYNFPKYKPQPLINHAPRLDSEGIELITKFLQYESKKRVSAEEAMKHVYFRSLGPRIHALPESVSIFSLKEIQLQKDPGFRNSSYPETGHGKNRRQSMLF
T9 sequence (Q9UM73 19-1620 C1156Y): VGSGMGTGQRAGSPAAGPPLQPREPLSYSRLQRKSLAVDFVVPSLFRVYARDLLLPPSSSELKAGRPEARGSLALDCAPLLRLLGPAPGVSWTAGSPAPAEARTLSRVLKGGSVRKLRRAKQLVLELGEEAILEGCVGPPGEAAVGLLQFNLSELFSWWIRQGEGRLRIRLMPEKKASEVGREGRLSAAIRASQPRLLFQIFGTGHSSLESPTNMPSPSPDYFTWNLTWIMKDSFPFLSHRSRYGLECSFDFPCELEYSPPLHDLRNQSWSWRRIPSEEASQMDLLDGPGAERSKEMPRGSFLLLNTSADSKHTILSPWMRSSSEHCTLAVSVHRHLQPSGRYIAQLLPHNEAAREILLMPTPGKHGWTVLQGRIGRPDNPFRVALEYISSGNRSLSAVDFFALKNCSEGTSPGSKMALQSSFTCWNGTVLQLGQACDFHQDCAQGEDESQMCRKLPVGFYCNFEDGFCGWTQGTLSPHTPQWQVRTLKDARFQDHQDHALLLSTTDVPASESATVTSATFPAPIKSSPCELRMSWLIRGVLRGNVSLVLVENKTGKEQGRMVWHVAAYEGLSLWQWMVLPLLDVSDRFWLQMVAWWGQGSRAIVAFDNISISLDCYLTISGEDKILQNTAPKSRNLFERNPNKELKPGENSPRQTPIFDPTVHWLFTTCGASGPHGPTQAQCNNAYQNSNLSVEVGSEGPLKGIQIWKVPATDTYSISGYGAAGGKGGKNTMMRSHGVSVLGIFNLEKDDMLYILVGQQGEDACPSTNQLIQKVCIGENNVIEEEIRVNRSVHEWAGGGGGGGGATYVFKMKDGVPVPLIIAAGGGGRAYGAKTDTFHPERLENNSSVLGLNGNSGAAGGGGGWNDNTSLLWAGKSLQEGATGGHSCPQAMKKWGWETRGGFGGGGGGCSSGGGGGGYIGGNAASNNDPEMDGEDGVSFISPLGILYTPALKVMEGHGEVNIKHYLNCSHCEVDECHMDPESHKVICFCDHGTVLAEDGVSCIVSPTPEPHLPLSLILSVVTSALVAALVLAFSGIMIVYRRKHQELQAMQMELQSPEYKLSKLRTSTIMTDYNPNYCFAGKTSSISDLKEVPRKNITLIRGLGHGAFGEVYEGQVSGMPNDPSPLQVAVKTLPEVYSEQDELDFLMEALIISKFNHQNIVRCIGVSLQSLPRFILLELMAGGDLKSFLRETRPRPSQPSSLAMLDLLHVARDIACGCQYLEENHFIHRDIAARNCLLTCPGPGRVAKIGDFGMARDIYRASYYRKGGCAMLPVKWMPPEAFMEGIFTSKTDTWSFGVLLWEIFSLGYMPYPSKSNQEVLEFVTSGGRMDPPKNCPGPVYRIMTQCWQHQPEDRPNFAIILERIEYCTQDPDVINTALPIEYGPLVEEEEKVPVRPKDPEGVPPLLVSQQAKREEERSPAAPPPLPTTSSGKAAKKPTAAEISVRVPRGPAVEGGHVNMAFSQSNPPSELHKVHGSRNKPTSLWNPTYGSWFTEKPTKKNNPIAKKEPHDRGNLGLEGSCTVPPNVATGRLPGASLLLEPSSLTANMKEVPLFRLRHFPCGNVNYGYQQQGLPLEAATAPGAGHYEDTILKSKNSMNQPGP
T3 sequence (O75914 whole entry): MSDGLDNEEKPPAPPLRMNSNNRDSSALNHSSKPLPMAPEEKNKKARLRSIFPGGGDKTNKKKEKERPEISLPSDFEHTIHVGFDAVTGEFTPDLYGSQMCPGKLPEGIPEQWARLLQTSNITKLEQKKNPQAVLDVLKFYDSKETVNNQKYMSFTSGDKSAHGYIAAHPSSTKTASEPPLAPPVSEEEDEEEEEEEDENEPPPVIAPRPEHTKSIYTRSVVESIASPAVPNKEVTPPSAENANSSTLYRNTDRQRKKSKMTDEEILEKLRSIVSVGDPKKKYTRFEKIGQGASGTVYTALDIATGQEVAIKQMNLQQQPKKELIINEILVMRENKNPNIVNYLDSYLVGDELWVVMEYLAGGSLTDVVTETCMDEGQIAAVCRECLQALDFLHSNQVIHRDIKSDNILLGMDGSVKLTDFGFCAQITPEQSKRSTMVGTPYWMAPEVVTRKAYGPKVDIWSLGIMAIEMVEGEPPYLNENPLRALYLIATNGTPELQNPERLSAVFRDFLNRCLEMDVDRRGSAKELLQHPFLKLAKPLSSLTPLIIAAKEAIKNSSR
T7 sequence (Q04912 25-1400): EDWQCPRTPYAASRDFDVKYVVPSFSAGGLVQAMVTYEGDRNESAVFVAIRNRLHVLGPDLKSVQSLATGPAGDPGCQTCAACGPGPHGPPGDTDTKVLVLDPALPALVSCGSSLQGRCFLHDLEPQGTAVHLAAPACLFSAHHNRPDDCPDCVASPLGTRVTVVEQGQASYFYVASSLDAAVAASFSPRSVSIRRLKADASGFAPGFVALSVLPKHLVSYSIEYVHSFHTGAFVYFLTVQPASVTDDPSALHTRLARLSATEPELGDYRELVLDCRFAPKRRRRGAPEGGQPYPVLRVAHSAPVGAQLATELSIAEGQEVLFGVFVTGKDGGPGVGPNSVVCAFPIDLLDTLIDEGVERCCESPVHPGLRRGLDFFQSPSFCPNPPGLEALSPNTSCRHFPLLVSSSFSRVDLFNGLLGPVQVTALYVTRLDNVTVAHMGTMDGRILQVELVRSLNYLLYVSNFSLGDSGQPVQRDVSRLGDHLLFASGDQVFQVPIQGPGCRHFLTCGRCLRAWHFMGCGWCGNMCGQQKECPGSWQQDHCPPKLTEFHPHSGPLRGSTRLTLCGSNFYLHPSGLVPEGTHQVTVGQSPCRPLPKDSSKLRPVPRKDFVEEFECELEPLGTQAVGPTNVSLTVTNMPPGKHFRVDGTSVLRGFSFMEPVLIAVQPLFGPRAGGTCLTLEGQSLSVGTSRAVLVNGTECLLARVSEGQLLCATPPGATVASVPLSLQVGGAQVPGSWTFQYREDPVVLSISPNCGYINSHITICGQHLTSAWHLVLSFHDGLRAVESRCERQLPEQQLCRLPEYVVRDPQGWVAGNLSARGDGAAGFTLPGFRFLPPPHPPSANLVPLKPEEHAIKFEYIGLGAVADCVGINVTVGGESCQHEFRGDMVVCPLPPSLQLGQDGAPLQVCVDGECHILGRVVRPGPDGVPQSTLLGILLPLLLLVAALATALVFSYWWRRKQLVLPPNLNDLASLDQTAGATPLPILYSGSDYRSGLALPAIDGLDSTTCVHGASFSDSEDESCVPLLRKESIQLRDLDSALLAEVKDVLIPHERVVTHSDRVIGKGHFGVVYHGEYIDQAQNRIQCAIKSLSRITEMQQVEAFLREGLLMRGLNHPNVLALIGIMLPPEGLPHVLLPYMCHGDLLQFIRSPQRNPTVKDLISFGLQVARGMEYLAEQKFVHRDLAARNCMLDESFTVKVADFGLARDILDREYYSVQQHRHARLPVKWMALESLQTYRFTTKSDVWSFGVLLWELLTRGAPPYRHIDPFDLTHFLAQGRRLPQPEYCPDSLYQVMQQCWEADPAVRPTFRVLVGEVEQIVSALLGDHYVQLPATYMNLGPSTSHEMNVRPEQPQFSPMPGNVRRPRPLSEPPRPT

SMILES: CNc1nc(Nc2ccc(C(=O)N3CCOCC3)cc2OC)nc2[nH]cc(C#N)c12 [Example 1, 2-((2-methoxy-4-(morpholine-4-carbonyl)phenyl)amino)-4-(methylamino)-7H-pyrrolo[2,3-d]pyrimidine-5-carbonitrile]
- remaining binding at 1 µM [1]: 57%
- remaining binding at 1 µM [2]: 57%
- remaining binding at 1 µM [3]: 68%
- remaining binding at 1 µM [4]: 90%
- remaining binding at 1 µM [5]: 82%
- remaining binding at 1 µM [6]: 98%
- remaining binding at 1 µM [7]: 88%
- remaining binding at 1 µM [8]: 100%
- remaining binding at 1 µM [9]: 9.3%

SMILES: CC1(Nc2nc(Nc3cnn([C@H]4CCN(C5COC5)C[C@@H]4F)c3Cl)nc3[nH]cc(C#N)c23)CC1 [Example 52, 2-((5-chloro-1-((3S,4S)-3-fluoro-1-(oxetane-3-yl)piperidine-4-yl)-1H-pyrazole-4-yl)amino)((1-methylcyclopropyl)amino)-7H-pyrrolo[2,3-d]pyrimidine-5-carbonitrile]
- remaining binding at 1 µM [1]: 3.4%
- remaining binding at 1 µM [2]: 28%
- remaining binding at 1 µM [3]: 17%
- remaining binding at 1 µM [4]: 0%
- remaining binding at 1 µM [5]: 89%
- remaining binding at 1 µM [6]: 88%
- remaining binding at 1 µM [7]: 78%
- remaining binding at 1 µM [8]: 65%
- remaining binding at 1 µM [9]: 0.8%

SMILES: CCNc1nc(Nc2ccc(C(=O)N3CCC(N4CCOCC4)CC3)cc2OC)nc2[nH]cc(C(F)(F)F)c12 [Example 104, (4-((4-(ethylamino)-5-(trifluoromethyl)-7H-pyrrolo[2,3-d]pyrimidine-2-yl)amino)-3-methoxyphenyl)(4-morpholinopiperidine-1-yl)methanone]
- remaining binding at 1 µM [1]: 93%
- remaining binding at 1 µM [2]: 83%
- remaining binding at 1 µM [3]: 100%
- remaining binding at 1 µM [4]: 51%
- remaining binding at 1 µM [5]: 81%
- remaining binding at 1 µM [6]: 99%
- remaining binding at 1 µM [7]: 95%
- remaining binding at 1 µM [8]: 100%
- remaining binding at 1 µM [9]: 16%
